IC50 data for 2 compounds are collected here from ChEMBL document CHEMBL1201862, “PubChem BioAssay data set” (2004).

Active and inactive are the calls of the source. Rule as the data show it: actives have a measured IC50 and inactives only a lower limit.

The target of this assay is Envelope glycoprotein gp160 (Human immunodeficiency virus 1, UniProt Q6QLK5). Put plainly: cell-free HIV fusion peptide-binding blockers – biochemical, uHTS, fluorescence dequenching, […] (AID 1986).
Chain of Envelope glycoprotein gp160 (Q6QLK5 whole entry, the tested form may be a part): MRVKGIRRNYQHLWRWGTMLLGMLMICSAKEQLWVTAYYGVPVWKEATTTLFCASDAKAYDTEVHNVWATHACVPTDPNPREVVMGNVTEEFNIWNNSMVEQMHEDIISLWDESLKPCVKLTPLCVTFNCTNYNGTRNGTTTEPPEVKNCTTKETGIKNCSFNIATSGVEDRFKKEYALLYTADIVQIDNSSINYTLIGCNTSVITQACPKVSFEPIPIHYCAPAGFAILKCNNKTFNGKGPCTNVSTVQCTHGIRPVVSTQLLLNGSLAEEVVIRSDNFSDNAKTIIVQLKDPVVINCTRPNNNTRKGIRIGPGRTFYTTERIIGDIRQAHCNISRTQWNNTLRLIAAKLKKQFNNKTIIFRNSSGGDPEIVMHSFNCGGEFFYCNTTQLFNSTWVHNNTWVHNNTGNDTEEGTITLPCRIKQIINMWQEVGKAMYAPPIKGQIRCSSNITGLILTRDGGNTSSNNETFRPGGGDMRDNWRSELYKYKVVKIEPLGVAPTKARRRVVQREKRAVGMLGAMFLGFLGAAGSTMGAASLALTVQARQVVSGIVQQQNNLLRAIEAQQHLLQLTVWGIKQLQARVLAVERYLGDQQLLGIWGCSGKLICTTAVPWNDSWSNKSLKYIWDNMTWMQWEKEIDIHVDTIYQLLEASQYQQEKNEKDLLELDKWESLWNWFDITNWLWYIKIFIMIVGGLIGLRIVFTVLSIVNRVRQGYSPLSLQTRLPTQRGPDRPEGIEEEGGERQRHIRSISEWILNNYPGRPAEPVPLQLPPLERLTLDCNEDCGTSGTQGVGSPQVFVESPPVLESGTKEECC

For `Cc1cccc(S(=O)(=O)Nc2nc3ccccc3nc2Nc2cccc(C(=O)O)c2)c1`, the half-maximal inhibitory concentration (IC50) (as a rule, the concentration that gives 50% inhibition) is 29 µM (active). The result for `O=C(O)c1[nH]c2ccccc2c1C(c1cccc(O)c1)c1c(C(=O)O)[nH]c2ccccc12` reads 25.8 µM (active).
